Test results taken from patent US20230218624A1 (Urovant Sciences GmbH, priority 2017, published 2023).
“And” between values parts separate entries of the source, which are not always exact repeats. Equal entries are not always repeated. Where two headings read alike, the source gives them in different places.

Key:
[1] = Relative bioequivalence of aqueous and non-aqueous tablet; format: in vivo, human; details: 50 mg
Description: An open-label, single-dose, randomized, two-period, two-treatment, two-sequence, crossover Phase 1 study evaluated the relative bioequivalence of two types of tablets with slightly different composition: aqueous tablet (test) and non-aqueous tablet (reference).

healthy subjects [2] = assay: Phase 1 safety data; format: in vivo
Description: (§1) Exposure, and therefore risk of adverse-events can be further reduced with a 50 mg dose.

[3] = tested on: patients with overactive bladder; assay: Phase 2 safety data, adverse events (main study and 52-week extension)
Text: A placebo group was included in the main study, and a group that received tolterodine monotherapy was included in the main study and in the extension.

healthy subjects [4] = assay: Maximum MA4 heart rate in multiple-dose Phase 1 study; format: in vivo, human; details: Day 14
Description: More intensive assessments of heart rate and blood pressure were performed in healthy volunteers in several Phase 1 studies. […] Doses ranged from 25 to 400 mg once daily for 7 to 28 days depending on the cohort. Least squares mean and 90% confidence intervals of maximum change from baseline in moving average of heart rate over 4 hours postdose (MA4 HR) are presented in Table 17.

[5] = Dose-Cmax and dose-AUC models and simulations from Phase 1 data; parameters: species or system human
Description: as §1

[6] = Drug interaction study of vibegron 75 mg and rifampin; format: in vivo, human
β3-AR = β3-AR (Homo sapiens, UniProt P13945)
Chain of β3-AR (P13945 whole entry): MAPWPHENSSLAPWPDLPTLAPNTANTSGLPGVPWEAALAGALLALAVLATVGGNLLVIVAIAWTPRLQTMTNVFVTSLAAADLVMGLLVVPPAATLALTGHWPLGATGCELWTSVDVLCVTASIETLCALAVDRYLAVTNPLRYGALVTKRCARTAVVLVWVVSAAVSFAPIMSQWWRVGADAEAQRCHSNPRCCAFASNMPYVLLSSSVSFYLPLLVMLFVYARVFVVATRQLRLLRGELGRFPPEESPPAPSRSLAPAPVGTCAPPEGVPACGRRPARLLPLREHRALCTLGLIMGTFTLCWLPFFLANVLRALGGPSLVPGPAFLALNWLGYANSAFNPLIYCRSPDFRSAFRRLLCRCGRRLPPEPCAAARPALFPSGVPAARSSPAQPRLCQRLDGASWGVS

QTc interval [7] = details: human, in vivo, 400 mg
QTc interval [8] = assay: Thorough QT study, single oral doses
[9] = PK in patients with moderate hepatic impairment; details: single dose 100 mg
[10] = Vibegron + Rifampin 600 mg QD, single dose 75 mg, healthy adults
[11] = Vibegron alone, single dose 75 mg, healthy adults
[12] = healthy matched control subjects

## O=C(Nc1ccc(C[C@@H]2CC[C@H]([C@H](O)c3ccccc3)N2)cc1)[C@@H]1CCc2nccc(=O)n21 [Vibegron, (6S)—N-[4-[[(2S,5R)-5-[(R)-hydroxy(phenyl)methyl]pyrrolidin-2-yl]methyl]phenyl]-4-oxo-7,8-dihydro-6H-pyrrolo[1,2-a]pyrimidine-6-carboxamide]
[1]
  AUC0-inf GMR test to reference tablet: 100.2%
  Cmax GMR test to reference tablet: 107.7%
Healthy subjects [2]; Phase 1 program, single 2 to 600 mg, multiple 25 to 400 mg
  tolerability: generally well tolerated
Healthy subjects [2]; vibegron 100 mg coadministered in essential hypertension on metoprolol or amlodipine
  orthostatic AEs: no occurrences of orthostatic AEs
[3]; 3 mg, first 12 weeks
  Accidental overdose, % subjects: (2.1) %
  Accidental overdose, n subjects: 3
[3]; 15 mg, first 12 weeks
  Accidental overdose, % subjects: (4.5) %
  Accidental overdose, n subjects: 6
[3]; 50 mg, first 12 weeks
  Accidental overdose, % subjects: (2.7) %
  Accidental overdose, n subjects: 4
[3]; 100 mg, first 12 weeks
  Accidental overdose, % subjects: (4.2) %
  Accidental overdose, n subjects: 11
  ≥1 AE, n subjects: 107
[3]; human, in vivo
  frequency of injuries: 0.9%
  increased exposure (potential risk): ~2 fold
Healthy subjects [4]; 25 mg once daily
  Maximum MA4 HR difference from placebo (90% CI): −1.60 (−7.09, 3.88) bpm
  Maximum MA4 HR, LS mean (90% CI): 1.47 (−3.24, 6.17) bpm
Healthy subjects [4]; 50 mg once daily
  Maximum MA4 HR difference from placebo (90% CI): −1.57 (−6.70, 3.56) bpm
  Maximum MA4 HR, LS mean (90% CI): 1.50 (−2.79, 5.79) bpm
Healthy subjects [4]; 100 mg once daily
  Maximum MA4 HR, LS mean (90% CI): 3.28 (−1.02, 7.57) bpm
Healthy subjects [4]; 150 mg once daily
  Maximum MA4 HR difference from placebo (90% CI): 0.10 (−5.04, 5.23) bpm
  Maximum MA4 HR, LS mean (90% CI): 3.17 (−1.13, 7.46) bpm
Healthy subjects [4]; 200 mg once daily
  Maximum MA4 HR difference from placebo (90% CI): 2.60 (−2.89, 8.08) bpm
  Maximum MA4 HR, LS mean (90% CI): 5.67 (0.96, 10.37) bpm
Healthy subjects [4]; 300 mg once daily
  Maximum MA4 HR difference from placebo (90% CI): 5.98 (0.85, 11.12) bpm
  Maximum MA4 HR, LS mean (90% CI): 9.06 (4.76, 13.35) bpm
Healthy subjects [4]; 400 mg once daily
  Maximum MA4 HR difference from placebo (90% CI): 7.26 (2.13, 12.39) bpm
  Maximum MA4 HR, LS mean (90% CI): 10.33 (6.04, 14.63) bpm
[5]
  higher Cmax in elderly and females than healthy young males: 50-70%
[5]; dose decreased from 100 mg to 75 mg
  reduction in Cmax: ~40%
[5]; estimation
  AUC of 75 mg lower than 200 mg single dose: ~2 fold
  AUC of 75 mg lower than 400 mg single dose: ~6 fold
  Cmax of 75 mg lower than 200 mg single dose: approximately 3.3 fold
  Cmax of 75 mg lower than 400 mg single dose: ~9.2 fold
[5]; increase in dose from 50 to 100 mg
  increase in Cmax: ~3 fold
[5]; subjects receiving a potent CYP3A/P-gp inhibitor
  higher exposure: ~2 fold
[5]; subjects with moderate renal impairment
  mean increase in AUC vs normal renal function: 1.6 fold
[6]; [10]
  CL/F, geometric mean (% CV): 57.3 (30.1) L/hr
  V/F, geometric mean (% CV): 6140 (47.0) L
  t1/2, geometric mean (% CV): 74.2 (25.2) h
[6]; [11]
  CL/F, geometric mean (% CV): 57.2 (39.7) L/hr
  V/F, geometric mean (% CV): 6930 (48.6) L
[6]; vibegron 75 mg and rifampin, healthy male and female subjects
  tolerability: well tolerated
[6]; vibegron 75 mg single doses and rifampin 600 mg QD, 3 of 20 subjects
  subjects with an AE related to study drug: 15%
β3-AR
  β3-AR IC50: 0.086 µg/mL
QTc interval [7]
  AUC, mean ± SD: 6800 ± 2300 ng·h/mL
QTc interval [8]; single dose 200 mg
  AUC, mean ± SD: 2430 ± 974 ng·h/mL
  Maximum mean placebo corrected change from baseline RR interval: -84.36 ms
  Maximum mean placebo corrected change from baseline diastolic BP: 2.42 mmHg
  Maximum mean placebo corrected change from baseline systolic BP: 2.20 mmHg
QTc interval [8]; single dose 200 mg, 0.5 hour
  QTcF LS mean difference from placebo: 2.90 ms
  QTcF change from baseline, LS mean: 1.90 ms
QTc interval [8]; single dose 200 mg, 1 hour
  QTcF change from baseline, LS mean: 4.87 ms
QTc interval [8]; single dose 200 mg, 1 hour (maximum)
  QTcF LS mean difference from placebo: 4.98 (3.07, 6.88) msec and 4.98 msec
QTc interval [8]; single dose 200 mg, 2 hour
  QTcF LS mean difference from placebo: 2.14 ms
  QTcF change from baseline, LS mean: 2.06 ms
QTc interval [8]; single dose 200 mg, 3 hour
  QTcF LS mean difference from placebo: 0.40 ms
  QTcF change from baseline, LS mean: 1.14 ms
QTc interval [8]; single dose 200 mg, 4 hour
  QTcF LS mean difference from placebo: -0.83 ms
  QTcF change from baseline, LS mean: -0.40 ms
QTc interval [8]; single dose 200 mg, 6 hour
  QTcF LS mean difference from placebo: -1.26 ms
  QTcF change from baseline, LS mean: -6.89 ms
QTc interval [8]; single dose 200 mg, 8 hour
  QTcF LS mean difference from placebo: -1.24 ms
  QTcF change from baseline, LS mean: -9.59 ms
QTc interval [8]; single dose 200 mg, 10 hour
  QTcF LS mean difference from placebo: -2.67 ms
  QTcF change from baseline, LS mean: -8.82 ms
QTc interval [8]; single dose 200 mg, 12 hour
  QTcF LS mean difference from placebo: -3.72 ms
  QTcF change from baseline, LS mean: -6.82 ms
QTc interval [8]; single dose 200 mg, 23.5 hour
  QTcF LS mean difference from placebo: 0.38 ms
  QTcF change from baseline, LS mean: -2.15 ms
QTc interval [8]; single dose 400 mg
  Maximum mean placebo corrected change from baseline RR interval: -162.45 ms
  Maximum mean placebo corrected change from baseline diastolic BP: 3.99 mmHg
  Maximum mean placebo corrected change from baseline systolic BP: 3.97 mmHg
QTc interval [8]; single dose 400 mg, 0.5 hour
  QTcF LS mean difference from placebo: 3.37 ms
  QTcF change from baseline, LS mean: 2.37 ms
QTc interval [8]; single dose 400 mg, 1 hour
  QTcF change from baseline, LS mean: 4.49 ms
QTc interval [8]; single dose 400 mg, 1 hour (maximum)
  QTcF LS mean difference from placebo: 4.60 (2.71, 6.48) msec and 4.60 msec
QTc interval [8]; single dose 400 mg, 2 hour
  QTcF LS mean difference from placebo: 0.81 ms
  QTcF change from baseline, LS mean: 0.73 ms
QTc interval [8]; single dose 400 mg, 3 hour
  QTcF LS mean difference from placebo: -1.04 ms
  QTcF change from baseline, LS mean: -0.30 ms
QTc interval [8]; single dose 400 mg, 4 hour
  QTcF LS mean difference from placebo: -2.96 ms
  QTcF change from baseline, LS mean: -2.53 ms
QTc interval [8]; single dose 400 mg, 6 hour
  QTcF LS mean difference from placebo: -2.70 ms
  QTcF change from baseline, LS mean: -8.33 ms
QTc interval [8]; single dose 400 mg, 8 hour
  QTcF LS mean difference from placebo: -3.24 ms
  QTcF change from baseline, LS mean: -11.60 ms
QTc interval [8]; single dose 400 mg, 10 hour
  QTcF LS mean difference from placebo: -4.14 ms
  QTcF change from baseline, LS mean: -10.29 ms
QTc interval [8]; single dose 400 mg, 12 hour
  QTcF LS mean difference from placebo: -4.00 ms
  QTcF change from baseline, LS mean: -7.10 ms
QTc interval [8]; single dose 400 mg, 23.5 hour
  QTcF LS mean difference from placebo: -0.34 ms
  QTcF change from baseline, LS mean: -2.87 ms
QTc interval [8]; thorough QT study
  effect on QTc or blood pressure: no clinically meaningful effect on QTc or blood pressure
[9]; [12]
  AUC0-inf, geometric least squares mean: 1440 ng·h/mL
  CL/F, geometric mean (% geometric CV): 68.3 (36.0%) L/hr
  Cmax, geometric least squares mean: 125 ng/mL
[9]; moderate hepatic impairment
  AUC0-inf, geometric least squares mean: 1820 ng·h/mL
  Apparent terminal t1/2, geometric mean (% geometric CV): 94.5 (8.88%) hr
  CL/F, geometric mean (% geometric CV): 56.0 (31.2%) L/hr
  Cmax, geometric least squares mean: 168 ng/mL
